Measured values from ChEMBL document CHEMBL3407340, “Synthesis, radiolabeling and evaluation of novel 4-oxo-quinoline derivatives as PET tracers for imaging cannabinoid type 2 receptor” (Eur J Med Chem, 2015).

Target: Cannabinoid receptor 1 (Homo sapiens, UniProt P21554)
Assay: Displacement of [3H]-CP-55940 from human CB1 receptor transfected in CHOK1 cells after 90 mins by liquid scintillation counting analysis
Type: cell-based, CHO-K1

Sequence of Cannabinoid receptor 1 (P21554 whole entry): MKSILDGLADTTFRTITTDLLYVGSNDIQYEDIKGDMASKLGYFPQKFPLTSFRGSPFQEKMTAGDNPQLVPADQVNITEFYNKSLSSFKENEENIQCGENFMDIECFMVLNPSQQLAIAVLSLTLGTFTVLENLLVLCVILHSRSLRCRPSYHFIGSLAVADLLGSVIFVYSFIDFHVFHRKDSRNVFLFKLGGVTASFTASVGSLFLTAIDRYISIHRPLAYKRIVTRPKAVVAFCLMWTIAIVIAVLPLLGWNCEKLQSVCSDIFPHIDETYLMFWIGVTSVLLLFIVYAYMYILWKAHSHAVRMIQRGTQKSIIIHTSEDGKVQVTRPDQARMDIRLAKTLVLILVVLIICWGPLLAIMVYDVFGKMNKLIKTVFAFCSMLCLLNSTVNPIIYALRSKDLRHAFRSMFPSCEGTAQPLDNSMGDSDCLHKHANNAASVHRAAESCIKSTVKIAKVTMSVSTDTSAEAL

Row | SMILES | Ki [µM]
1 | CCCCn1cc(C(=O)NC23CC4CC(CC(C4)C2)C3)c(=O)c2cccc(OC)c21 | > 10
2 | CCCCn1cc(C(=O)NC2CCCC2)c(=O)c2cccc(OC)c21 | > 10
3 | CCCCCn1cc(C(=O)NC23CC4CC(CC(C4)C2)C3)c(=O)c2cccc(OC)c21 | > 10
4 | CCOCCn1cc(C(=O)NC23CC4CC(CC(O)(C4)C2)C3)c(=O)c2cccc(OC)c21 | > 10
5 | CCCCn1cc(C(=O)NC(C)(C)C)c(=O)c2cccc(OC)c21 | > 10
